Assay: excess molar enthalpy (molar enthalpy of mixing); xn = mol fraction of the nth substance listed
Conditions: 100 kPa, Liquid, Calvet calorimetry

[Li] [lithium] + [Ga]
Conditions	excess molar enthalpy [kcal/mol]
891 K, x1 = 0.7508	-4.11
993 K, x1 = 0.1014	-1.39
993 K, x1 = 0.2531	-3.23
1018 K, x1 = 0.7505	-3.9
1044 K, x1 = 0.4035	-4.64
1044 K, x1 = 0.5023	-5.04
1044 K, x1 = 0.6005	-5.04
